Laboratory results taken from PMC7136958, “Targeting the pregnane X receptor using microbial metabolite mimicry” (EMBO Molecular Medicine, 2020).
“And” between values parts separate entries of the source, which are not always exact repeats. Equal values may be shown once. Read-outs that look alike come from different tables or passages of the source.

What was measured:
AhR = target: T1, AhR (Homo sapiens, UniProt P35869); assay: AhR reporter assay, HepG2 cells stably expressing pCYP1A1 luciferase (AZ-AHR); assay type: cell-based; conditions: for FOLD INDUCTION (AZ-AHR luciferase): fold vs DMSO
T1 construct: endogenous in cells; host or cells: AZ-AHR (HepG2)
T1 sequence (P35869 11-848): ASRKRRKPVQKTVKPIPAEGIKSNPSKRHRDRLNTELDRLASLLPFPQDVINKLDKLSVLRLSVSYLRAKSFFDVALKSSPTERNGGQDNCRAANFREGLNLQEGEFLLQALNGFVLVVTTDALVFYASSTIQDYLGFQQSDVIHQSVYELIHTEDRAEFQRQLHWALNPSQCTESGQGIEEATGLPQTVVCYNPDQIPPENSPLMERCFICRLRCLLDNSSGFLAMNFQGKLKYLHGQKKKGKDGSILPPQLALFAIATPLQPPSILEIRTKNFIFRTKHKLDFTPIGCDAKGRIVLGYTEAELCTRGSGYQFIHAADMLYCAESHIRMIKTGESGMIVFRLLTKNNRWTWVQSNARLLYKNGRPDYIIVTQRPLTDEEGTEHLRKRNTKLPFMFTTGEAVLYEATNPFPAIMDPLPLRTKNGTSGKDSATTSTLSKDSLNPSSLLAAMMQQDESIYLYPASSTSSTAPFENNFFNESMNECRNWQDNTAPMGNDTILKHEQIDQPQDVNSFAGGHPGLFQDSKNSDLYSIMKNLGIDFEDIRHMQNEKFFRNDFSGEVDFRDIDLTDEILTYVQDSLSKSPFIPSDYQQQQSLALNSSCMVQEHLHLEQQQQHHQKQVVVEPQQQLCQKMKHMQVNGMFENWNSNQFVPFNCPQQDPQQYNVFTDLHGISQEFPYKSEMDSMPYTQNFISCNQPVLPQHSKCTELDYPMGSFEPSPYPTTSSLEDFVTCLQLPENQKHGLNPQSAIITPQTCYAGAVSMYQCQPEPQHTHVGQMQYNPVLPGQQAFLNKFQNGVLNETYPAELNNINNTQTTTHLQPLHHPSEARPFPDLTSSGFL
Protocol: Incubations were performed in four technical replicates.

[1] = tested on: CYP1A1, CYP3A4, MDR1 mRNA in HepaRG cells; conditions: for 1A1 mRNA fold to C: normalised to GAPDH, fold vs UT
Protocol: Caco‐2 cells were purchased from ATCC, and authenticity was validated by multiplexed STR DNA (short tandem repeat deoxyribonucleic acid) profiling performed by Genetica. […] Cells were maintained at 37°C and 5% CO2 in a humidified incubator. […] Three HepaRG™‐derived cell lines, including 5F Clone control cells, and cells with targeted functional PXR and AhR gene knockouts, PXR‐KO and AhR‐KO, respectively, were purchased from Sigma (Czech Republic). Cells were handled according to the manufacturer's protocol. Human hepatocytes were purchased from Biopredic International (France) and Triangle Research Labs, LLC, Lonza (USA). Cultures were maintained in serum‐free medium at 37°C and 5% CO2 in a humidified incubator.
The measurements were performed in triplicate.

[2] = tested on: CYP1A1, CYP3A4, MDR1 mRNA in primary human hepatocytes; assay: qRT-PCR of CYP1A1, CYP3A4, MDR1 mRNA in primary human hepatocytes (four donors); conditions: for CYP1A1 (1A1) mRNA, fold to C: primary human hepatocytes, fold vs untreated (UT)
Protocol: (§1) Cells or primary human hepatocytes from four different donors (HEP200529, HEP220932, HEP200533, and HEP200538) were incubated for 24 h with test compounds; the vehicle was DMSO (0.1% v/v). Total RNA was isolated using TRI Reagent® (Molecular Research Center, Ohio, USA). cDNA was synthesized from 1,000 ng of total RNA using M‐MuLV Reverse Transcriptase (New England Biolabs, Ipswich, Massachusetts, USA) at 42°C for 60 min in the presence of random hexamers (New England Biolabs). Quantitative reverse transcriptase–polymerase chain reaction (qRT–PCR) was performed using LightCycler® 480 Probes Master on a LightCycler® 480 II apparatus (Roche Diagnostic Corporation).
(§2) The following protocol was used: An activation step at 95°C for 10 min was followed by 45 cycles of PCR (denaturation at 95°C for 10 s; annealing with elongation at 60°C for 30 s). The measurements were performed in triplicate. Gene expression was normalized per GAPDH as a housekeeping gene. […] Data are expressed as fold induction ± SD over the vehicle‐treated cells. The bar graph depicts one representative experiment of a series of experiments performed in three consecutive passages of cells. Differences were tested using one‐way ANOVA with Dunnett's post hoc test, and P < 0.05 was considered significant.

[3] = tested on: CYP1A1, CYP3A4, MDR1 mRNA in LS180 cells; assay: qRT-PCR of CYP1A1, CYP3A4, MDR1 mRNA in LS180 cells with or without (mock) transfected PXR; conditions: normalised to GAPDH, fold to UT control
Protocol: as §1, §2

NF-κB = assay: TNF-α-induced NF-κB reporter assay in LS174T PXR-KO cells; conditions: LS174T PXR-KO, EXP3; 10 μM + TNFα 5 ng/ml; TNFa 5 ng/ml = 100; listed as RIF
From the text: In early passage PXR‐KO cells, we used PXR and NF‐κB reporter‐co‐transfected and NF‐κB reporter‐transfected PXR‐KO cell line.
CRISPR/Cas9‐mediated knockout cells were generated by Synthego Corporation (Redwood City, CA, USA). Briefly, cells were first tested negative for mycoplasma. Guide RNA was selected for high activity, specificity, and activity to create premature stop codons through frameshift mutations in the coding region via insertions and/or deletions (Indels) within exon 2 of the gene encoding human PXR (NR1I2 transcript ID ENST00000337940). […] To generate these cells, ribonucleoproteins (RNPs) containing the Cas9 protein and synthetic chemically modified sgRNA (Synthego) were electroporated into the cells using Synthego's optimized protocol. Editing efficiency is assessed upon recovery, 48 h post‐electroporation. Genomic DNA is extracted from a portion of the cells, PCR‐amplified, and sequenced using Sanger sequencing. The resulting chromatograms are processed using Synthego Inference of CRISPR Edits software (ice.synthego.com).

hPXR-LBD (PXR.1) = target: T2, hPXR-LBD (PXR.1) (Homo sapiens, UniProt O75469); assay: Isothermal titration calorimetry with His-tagged hPXR-LBD; assay type: binding
T2 construct: made in house; host or cells: E. coli BL21-Gold
T2 sequence (O75469 146-433 limits assumed): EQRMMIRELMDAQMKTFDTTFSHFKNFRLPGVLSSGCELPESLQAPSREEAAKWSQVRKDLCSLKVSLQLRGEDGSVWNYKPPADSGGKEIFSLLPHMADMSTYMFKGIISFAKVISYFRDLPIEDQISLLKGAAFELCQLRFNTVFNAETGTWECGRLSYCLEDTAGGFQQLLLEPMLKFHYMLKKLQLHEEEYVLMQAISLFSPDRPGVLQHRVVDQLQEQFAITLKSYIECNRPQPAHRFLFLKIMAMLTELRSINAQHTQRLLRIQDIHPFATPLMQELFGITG
Protocol: The cloning, expression, and purification of His‐tagged PXR‐LBD were performed as previously published (Wallace et al, 2013) with the following modifications: For protein expression, Luria–Bertani (LB) media were inoculated with a saturated culture of BL21‐Gold cells transformed with HIS‐LIC plasmid containing the PXR‐LBD construct. The mixture was allowed to shake at 37°C until the cells reached an OD600 ~ 0.6, and then, the temperature was reduced to 18°C, at which time IPTG was added (final concentration of 0.1 mM) to induce protein expression. For purification, the His‐tag was not removed, and the uncleaved protein was loaded onto the gel filtration column with buffer containing HEPES (4‐(2‐hydroxyethyl)‐1‐piperazineethanesulfonic acid) (25 mM, pH 7.5) and NaCl (150 mM).
Isothermal titration calorimetry (ITC) was carried out using a VP‐ITC microcalorimeter from MicroCal⁄Malvern Instruments (Northampton, MA, USA). […] In all the experiments, the ligand solution was injected in 10 μl aliquots into the calorimetric cell containing PXR‐LBD (ligand‐binding domain) at a concentration of 3–6 μM. […] The experiments were carried out at 37°C. The heat evolved upon each injection of the ligands was obtained from the integral of the calorimetric signal. The heat associated with binding to PXR‐LBD in the cell was obtained by subtracting the heat of dilution from the heat of reaction.

PXR = target: T3, PXR (Homo sapiens, UniProt O75469); assay: PXR reporter (p3A4-luc luciferase) assay in LS180 cells transiently transfected with wild-type PXR; conditions: for FOLD INDUCTION of PXR reporter luciferase activity: 24 h, over UT
T3 sequence (O75469 1-434): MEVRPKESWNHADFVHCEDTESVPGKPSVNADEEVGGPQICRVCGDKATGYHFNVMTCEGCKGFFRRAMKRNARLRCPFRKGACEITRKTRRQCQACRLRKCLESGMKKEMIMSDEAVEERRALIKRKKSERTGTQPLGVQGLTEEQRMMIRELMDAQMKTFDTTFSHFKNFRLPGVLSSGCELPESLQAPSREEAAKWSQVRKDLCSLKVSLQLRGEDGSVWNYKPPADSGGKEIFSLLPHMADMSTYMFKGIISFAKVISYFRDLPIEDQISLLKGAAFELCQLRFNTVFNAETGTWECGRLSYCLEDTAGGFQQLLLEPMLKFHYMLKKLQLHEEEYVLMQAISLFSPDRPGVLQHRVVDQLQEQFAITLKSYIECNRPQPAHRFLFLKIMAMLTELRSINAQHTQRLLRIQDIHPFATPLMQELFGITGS
Protocol: Incubations were performed in four technical replicates. After the treatments, cells were lysed and luciferase activity was measured on Tecan Infinite M200 Pro plate reader (Schoeller Instruments, Prague, Czech Republic). The data are expressed as fold induction ± SD of luciferase activity over the control cells (agonistic mode—in the absence of a model ligand) or as a percentage of maximal activation ± SD (antagonistic mode—in the presence of a model ligand). […] For all the transfection experiments, specifically multiplexed transfections, the control wells were mock‐transfected ([…]). However, to exclude non‐specific binding of PXR (or other factors) upstream of the luciferase gene within non‐PXR‐binding elements, we performed pilot experiments in different cell passages (P11, P14, and P17) of LS174T cells using a mock luciferase plasmid (luciferase not containing an upstream PXR‐binding element of the CYP3A4 promoter).

Structure (SMILES): Clc1cc2c(cc1Cl)Oc1cc(Cl)c(Cl)cc1O2 [TCDD, 2,3,7,8‐tetrachlorodibenzo‐p‐dioxin, reference compound]
- fold induction at 24 h (AhR; human, AZ-AHR cells, positive control, fold vs UT, concentration not given): 485
- 1A1 mRNA fold to C ([1]; HepaRG AHR-KO): 1.24 fold
- 1A1 mRNA fold to C ([1]; HepaRG CONTROL 5F Clone): 151.69 fold
- CYP1A1 (1A1) mRNA, fold to C ([1]; HepaRG PXR-KO cells, qRT-PCR normalised to GAPDH, fold vs untreated (UT)): 338.18 fold
- CYP1A1 mRNA induction ([1]; HepaRG control 5F clone, PXR-KO, AhR-KO): induces
- CYP1A1 mRNA induction ([2]; four donors): induced CYP1A1 mRNA in all cells
- CYP1A1 mRNA fold to C ([2]; primary human hepatocytes donor Hep200538, normalised to GAPDH, fold to UT control): 10734.74
- CYP1A1 (1A1) mRNA, fold to C ([2]; donor Hep200529, normalised to GAPDH): 394.35 fold
- CYP1A1 (1A1) mRNA, fold to C ([2]; donor Hep200533, normalised to GAPDH): 1246.21 fold
- CYP1A1 (1A1) mRNA, fold to C ([2]; donor Hep220932, normalised to GAPDH): 962.07 fold
- CYP1A1 mRNA fold to C ([3]; PXR-transfected LS180 cells): 1299.13
- CYP1A1 mRNA fold to C ([3]; mock-transfected LS180 cells): 2347.10

Structure (SMILES): CO[C@H]1/C=C/O[C@@]2(C)Oc3c(C)c(O)c4c(O)c(c(/C=N/N5CCN(C)CC5)c(O)c4c3C2=O)NC(=O)/C(C)=C\C=C\[C@H](C)[C@H](O)[C@@H](C)[C@@H](O)[C@@H](C)[C@H](OC(C)=O)[C@@H]1C [Rifampicin, reference compound]
- NFkB %max (NF-κB): 94.8% and 94.84%

Structure (SMILES): O=C(O)CCc1c[nH]c2ccccc12 [IPA, indole‐3‐propionic acid, reference compound]
- thermal signature of interaction with hPXR-LBD (hPXR-LBD (PXR.1)): did not induce a thermal signature

Structure (SMILES): O=S(=O)(c1ccccc1)n1c(C(O)(Cc2cc3ccccc3[nH]2)c2ccncc2)cc2ccccc21 (racemic) [FKK7]
- aver (mean luciferase signal of H1-H4) (PXR; 1 nM): 4342.5
- FOLD INDUCTION of PXR reporter luciferase activity (PXR; 1 nM): 1.1 fold
- aver (mean luciferase signal of H1-H4) (PXR; 10 nM): 4393.8
- FOLD INDUCTION of PXR reporter luciferase activity (PXR; 10 nM): 1.2 fold
- aver (mean luciferase signal of H1-H4) (PXR; 100 nM): 6280.8
- FOLD INDUCTION of PXR reporter luciferase activity (PXR; 100 nM): 1.7 fold
- aver (mean luciferase signal of H1-H4) (PXR; 1 uM): 60156.8
- FOLD INDUCTION of PXR reporter luciferase activity (PXR; 1 uM): 15.8 fold
- aver (mean luciferase signal of H1-H4) (PXR; 10 uM): 84023.3
- FOLD INDUCTION of PXR reporter luciferase activity (PXR; 10 uM): 22.1 fold
- aver (mean luciferase signal of H1-H4) (PXR; 25 uM): 80527.0
- FOLD INDUCTION of PXR reporter luciferase activity (PXR; 25 uM): 21.2 fold
- AhR activation (in words) (AhR): variable degrees of dose‐dependent AhR activation profiles
- FOLD INDUCTION (AZ-AHR luciferase) (AhR; AZ-AHR cells, 1 nM): 0.746 fold
- FOLD INDUCTION (AZ-AHR luciferase) (AhR; AZ-AHR cells, 10 nM): 0.738 fold
- FOLD INDUCTION (AZ-AHR luciferase) (AhR; AZ-AHR cells, 100 nM): 0.7 fold
- FOLD INDUCTION (AZ-AHR luciferase) (AhR; AZ-AHR cells, 1µM): 3.6 fold
- FOLD INDUCTION (AZ-AHR luciferase) (AhR; AZ-AHR cells, 10 µM): 75.5 fold
